Laboratory results published in patent US20220259551A1, “METHODS OF OPTIMIZED EUGLENA FERMENTATION USING ENGINEERED TANK DESIGN” (NOBLEGEN INC., priority 2019, published 2022).

Test system: Euglena gracilis Z
Experiment: Effect of organic acids, with or without glucose, on Euglena growth in shake flasks (Example 9)
Format: cell-based
Details: for higher biomass compared to control (glucose alone): higher levels of acids (~2-5 g/L) + glucose ~15 g/L; for higher biomass compared to control (glucose alone) / net biomass / higher biomass compared to glucose alone (control): end of 48 h; for further improvement in net biomass concentration compared to 48 h / higher acid contribution to biomass when fed along with glucose vs maximum acid alone contribution: end of 120 h; for % Increase in biomass between 48 h and 120 h / Net change in biomass: higher levels of acids (~2-5 g/L) solely or with glucose (~15 g/L); for higher acid contribution to biomass when fed along with glucose vs maximum acid alone contribution: higher acid concentrations (2-5 g/L); for higher biomass compared to glucose alone (control): lower acid supplementation (~0.0005-0.05 g/L) + glucose 15 g/L
[1] = no glucose, acid conc. 0.05 g/L, 48 h
[2] = lactic acid 0.05 g/L + glucose 15 g/L, 48 h
[3] = fumaric acid 0.0005 g/L + glucose 15 g/L, 48 h

| SMILES | higher biomass compared to control (glucose alone) [%] | net biomass (~5 g/L as sole carbon source) [g/L] | % Increase in biomass between 48 h and 120 h [%] | Net change in biomass (incubation 48 h) [g/L] | Net change in biomass (incubation 120 h) [g/L] | Net biomass conc. (48 h) [1] [g/L] | higher acid contribution to biomass when fed along with glucose vs maximum acid alone contribution [%] | other results |
| --- | --- | --- | --- | --- | --- | --- | --- | --- |
| O=C(O)CCC(=O)O [succinate, succinic acid] | 3.1 | 2.20 | – | – | – | – | – | further improvement in net biomass concentration compared to 48 h (~5 g/L as sole carbon source): 13.6% |
| O=C(O)CC(O)C(=O)O (stereo not drawn) [Malic acid only] | – | – | −7.1 | 1.40 | 1.30 | 0.60 | – | – |
| CC(=O)C(=O)O [Pyruvate only] | – | – | −11.1 | 0.90 | 0.80 | 1.00 | – | – |
| CC(O)C(=O)O (stereo not drawn) [lactic acid] | 1.5 | 2.10 | – | – | – | – | 5.56 | biomass yield (g)/g of carbon [2]: 1.35 g/g of carbon; biomass yield (g)/g of carbon, higher than the control [2]: ~13%; conversion efficiency [2]: 54.8%; conversion efficiency, higher than the glucose control [2]: ~8%; higher biomass compared to glucose alone (control): 13.4%; further improvement in net biomass concentration compared to 48 h (~5 g/L as sole carbon source): 9.5% |
| O=C[C@H](O)[C@@H](O)[C@H](O)[C@H](O)CO [Glucose (Control)] | – | – | 0.0 | 6.50 | 6.50 | – | – | Net biomass conc. (48 h) (Glucose conc. 15 g/L, no acid, 48 h): 6.70 g/L |
| CC(O)C(=O)O (stereo not drawn) [Lactic acid only] | – | – | 9.5 | 2.10 | 2.30 | 0.60 | – | – |
| O=C(O)CC(O)C(=O)O (stereo not drawn) [malic acid] | 4.6 | 1.40 | – | – | – | – | 63.64 | higher biomass compared to glucose alone (control): −3% |
| O=C(O)/C=C/C(=O)O [fumaric acid] | 12.3 | 2.10 | – | – | – | – | 46.67 | conversion efficiency (15 g/L glucose and 2 g/L fumaric acid, 120 h): 57.4%; conversion efficiency (15 g/L glucose and 5 g/L fumaric acid, 120 h): 58.41%; biomass yield (g)/g of carbon, higher than glucose alone [3]: 8.4%; higher conversion efficiency compared to glucose alone (15 g/L) [3]: 21.9%; maximum biomass obtained (fumaric acid 2 g/L and 5 g/L): ~1.5 g/L; higher biomass compared to glucose alone (control): 7.5% |
| O=C(O)CCC(=O)O [Succinic acid only] | – | – | 13.6 | 2.20 | 2.50 | 0.70 | – | – |
| O=C(O)/C=C/C(=O)O [Fumaric acid only] | – | – | 4.8 | 2.10 | 2.20 | – | – | Net biomass conc. (48 h) (no glucose, acid conc. 0.0005 g/L, 48 h): 0.70 g/L |
| CC(=O)C(=O)O [pyruvate, pyruvic acid] | – | – | – | – | – | – | 72.73 | net biomass (~2 g/L as sole carbon source): 0.90 g/L |
